Measured values: patent publication US20240269136A1, “EGFR INHIBITOR AND PERK ACTIVATOR IN COMBINATION THERAPY AND THEIR USE FOR TREATING CANCER” (Genentech, Inc., priority 2021, published 2024)
Like-named read-outs stand apart in the source and are kept apart here.

Tested on: PC9 cells
Experiment: CellTiter-Glo Luminescent Cell Viability Assay, PC9 cells, EGFR inhibitors and PERK activators alone and in combination
Type: cell-based
Description: PC9 cells were seeded in replicates in 96-well plates and allowed to attach overnight. The following day cells were treated with the indicated compounds or compound combinations at the indicated concentrations. Cell survival was measured 72 h post-treatment using CellTiter-Glo Luminescent Cell Viability Assay (Promega, G7572). Quantification of the fold decrease in cell viability was determined for single agent activity and for combinations relative to the DMSO-treated control (as shown in Table 1A and 1B). Mean (u) and standard deviation (o) was determined for biological triplicates using Microsoft Excel.

[1] = combination: CCT-020312 2 μM + EGFRi 0.1 μM, PC9, 72 h, relative to DMSO
[2] = combination: CCT-020312 2 μM + EGFRi 1 μM, PC9, 72 h, relative to DMSO
[3] = combination: DHBDC 50 μM + EGFRi 0.1 μM, PC9, 72 h, relative to DMSO
[4] = combination: DHBDC 50 μM + EGFRi 1 μM, PC9, 72 h, relative to DMSO
[5] = combination: IPA 1 μM + EGFRi 0.1 μM, PC9, 72 h, relative to DMSO
[6] = combination: IPA 1 μM + EGFRi 1 μM, PC9, 72 h, relative to DMSO
[7] = combination: MK-28 20 μM + EGFRi 0.1 μM, PC9, 72 h, relative to DMSO
[8] = combination: MK-28 20 μM + EGFRi 1 μM, PC9, 72 h, relative to DMSO
[9] = single agent, EGFRi 0.1 μM, PC9, 72 h, relative to DMSO, mean of biological triplicates
[10] = single agent, EGFRi 1 μM, PC9, 72 h, relative to DMSO, mean of biological triplicates
[11] = combination: CCT-020312 2 μM + EGFRi 0.01 μM, PC9, 72 h, relative to DMSO
[12] = combination: DHBDC 50 μM + EGFRi 0.01 μM, PC9, 72 h, relative to DMSO
[13] = combination: IPA 1 μM + EGFRi 0.01 μM, PC9, 72 h, relative to DMSO
[14] = combination: MK-28 20 μM + EGFRi 0.01 μM, PC9, 72 h, relative to DMSO
[15] = single agent, EGFRi 0.01 μM, PC9, 72 h, relative to DMSO, mean of biological triplicates

## Cc1cc(C(=O)Nc2nc3cccc(Cl)c3n2[C@@H]2CCCCN(C(=O)/C=C/CN(C)C)C2)ccn1 (racemic) [Nazartinib, N-[7-chloro-1-[rac-(3R)-1-[rac-(E)-4-(dimethylamino)but-2-enoyl]azepan-3-yl]benzimidazol-2-yl]-2-methyl-pyridine-4-carboxamide]
[1]
  CCT-020312 + Low EGFRi, fold decrease in cell viability (μ): 255.4 fold
[2]
  CCT-020312 + High EGFRi, fold decrease in cell viability (μ): 1514.1 fold
[3]
  DHBDC + Low EGFRi, fold decrease in cell viability (μ): 25.8 fold
[4]
  DHBDC + High EGFRi, fold decrease in cell viability (μ): 53.6 fold
[5]
  IPA + Low EGFRi, fold decrease in cell viability (μ): 44.0 fold
[6]
  IPA + High EGFRi, fold decrease in cell viability (μ): 205.5 fold
[7]
  MK-28 + Low EGFRI, fold decrease in cell viability (μ): 130.5 fold
[8]
  MK-28 + High EGFRi, fold decrease in cell viability (μ): 421.8 fold
[9]
  Low EGFRi, fold decrease in cell viability (μ): 6.3 fold
[10]
  High EGFRi, fold decrease in cell viability (μ): 15.0 fold

## C=CC(=O)Nc1cccc(Oc2nc(Nc3ccc(N4CCN(C)CC4)cc3OC)ncc2Cl)c1 [WZ-4002, N-[3-[5-chloro-2-[2-methoxy-4-(4-methylpiperazin-1-yl)anilino]pyrimidin-4-yl]oxyphenyl]prop-2-enamide]
[1]
  CCT-020312 + Low EGFRi, fold decrease in cell viability (μ): 49.8 fold
[2]
  CCT-020312 + High EGFRi, fold decrease in cell viability (μ): 1482.6 fold
[3]
  DHBDC + Low EGFRi, fold decrease in cell viability (μ): 13.2 fold
[4]
  DHBDC + High EGFRi, fold decrease in cell viability (μ): 52.0 fold
[5]
  IPA + Low EGFRi, fold decrease in cell viability (μ): 10.3 fold
[6]
  IPA + High EGFRi, fold decrease in cell viability (μ): 106.0 fold
[7]
  MK-28 + Low EGFRI, fold decrease in cell viability (μ): 120.3 fold
[8]
  MK-28 + High EGFRi, fold decrease in cell viability (μ): 422.1 fold
[9]
  Low EGFRi, fold decrease in cell viability (μ): 2.6 fold
[10]
  High EGFRi, fold decrease in cell viability (μ): 13.5 fold

## C=CC(=O)Nc1cccc(Nc2nc(Nc3ccc(N4CCN(C(C)=O)CC4)cc3OC)ncc2C(F)(F)F)c1 [Rociletinib, N-[3-[[2-[4-(4-acetylpiperazin-1-yl)-2-methoxy-anilino]-5-(trifluoromethyl)pyrimidin-4-yl]amino]phenyl]prop-2-enamide]
[1]
  CCT-020312 + Low EGFRi, fold decrease in cell viability (μ): 5.1 fold
[2]
  CCT-020312 + High EGFRi, fold decrease in cell viability (μ): 446.1 fold
[3]
  DHBDC + Low EGFRi, fold decrease in cell viability (μ): 5.3 fold
[4]
  DHBDC + High EGFRi, fold decrease in cell viability (μ): 88.0 fold
[5]
  IPA + Low EGFRi, fold decrease in cell viability (μ): 6.4 fold
[6]
  IPA + High EGFRi, fold decrease in cell viability (μ): 142.3 fold
[7]
  MK-28 + Low EGFRI, fold decrease in cell viability (μ): 49.2 fold
[8]
  MK-28 + High EGFRi, fold decrease in cell viability (μ): 268.9 fold
[9]
  Low EGFRi, fold decrease in cell viability (μ): 1.3 fold
[10]
  High EGFRi, fold decrease in cell viability (μ): 7.0 fold

## COc1cc2ncnc(Nc3ccc(F)c(Cl)c3)c2cc1NC(=O)/C=C/CN1CCCCC1 [Dacomitinib, (E)-N-[4-(3-chloro-4-fluoro-anilino)-7-methoxy-quinazolin-6-yl]-4-(1-piperidyl)but-2-enamide]
[11]
  CCT-020312 + Low EGFRi, fold decrease in cell viability (μ): 731.1 fold
[1]
  CCT-020312 + High EGFRi, fold decrease in cell viability (μ): 1325.3 fold
[12]
  DHBDC + Low EGFRi, fold decrease in cell viability (μ): 66.5 fold
[3]
  DHBDC + High EGFRi, fold decrease in cell viability (μ): 85.2 fold
[13]
  IPA + Low EGFRi, fold decrease in cell viability (μ): 79.2 fold
[5]
  IPA + High EGFRi, fold decrease in cell viability (μ): 275.2 fold
[14]
  MK-28 + Low EGFRI, fold decrease in cell viability (μ): 170.8 fold
[7]
  MK-28 + High EGFRi, fold decrease in cell viability (μ): 241.8 fold
[15]
  Low EGFRi, fold decrease in cell viability (μ): 13.6 fold
[9]
  High EGFRi, fold decrease in cell viability (μ): 14.5 fold

## C=CC(=O)Nc1cc(Nc2nccc(-c3cn(C)c4ccccc34)n2)c(OC)cc1N(C)CCN(C)C [Osimertinib, N-[2-[2-(dimethylamino)ethyl-methyl-amino]-4-methoxy-5-[[4-(1-methylindol-3-yl)pyrimidin-2-yl]amino]phenyl]prop-2-enamide]
  CCT-020312 + High EGFRi, fold decrease in cell viability (μ): 836.5 fold
  CCT-020312 + Low EGFRi, fold decrease in cell viability (μ): 38.4 fold
  DHBDC + High EGFRi, fold decrease in cell viability (μ): 64.2 fold
  DHBDC + Low EGFRi, fold decrease in cell viability (μ): 13.6 fold
  High EGFRi, fold decrease in cell viability (μ): 12.6 fold
  IPA + High EGFRi, fold decrease in cell viability (μ): 67.3 fold
  IPA + Low EGFRi, fold decrease in cell viability (μ): 9.9 fold
  Low EGFRi, fold decrease in cell viability (μ): 2.1 fold
  MK-28 + High EGFRi, fold decrease in cell viability (μ): 220.3 fold
  MK-28 + Low EGFRI, fold decrease in cell viability (μ): 72.7 fold

## C=CC(=O)N1CCC(Oc2cc3c(Nc4ccc(Cl)c(Cl)c4F)ncnc3cc2OC)CC1 [Poziotinib, 1-[4-[4-(3,4-dichloro-2-fluoro-anilino)-7-methoxy-quinazolin-6-yl]oxy-1-piperidyl]prop-2-en-1-one]
[11]
  CCT-020312 + Low EGFRi, fold decrease in cell viability (μ): 716.9 fold
[1]
  CCT-020312 + High EGFRi, fold decrease in cell viability (μ): 1168.4 fold
[12]
  DHBDC + Low EGFRi, fold decrease in cell viability (μ): 74.1 fold
[3]
  DHBDC + High EGFRi, fold decrease in cell viability (μ): 88.4 fold
[13]
  IPA + Low EGFRi, fold decrease in cell viability (μ): 107.6 fold
[5]
  IPA + High EGFRi, fold decrease in cell viability (μ): 132.4 fold
[14]
  MK-28 + Low EGFRI, fold decrease in cell viability (μ): 181.5 fold
[7]
  MK-28 + High EGFRi, fold decrease in cell viability (μ): 295.2 fold
[15]
  Low EGFRi, fold decrease in cell viability (μ): 14.3 fold
[9]
  High EGFRi, fold decrease in cell viability (μ): 15.4 fold

## C=CC(=O)N[C@H]1C=C(C)c2c(-c3cnc4ccccc4c3)c3c(N)ncnc3n2C1 (racemic) [TAS-6417, N-[rac-(8S)-4-amino-6-methyl-5-(3-quinolyl)-8,9-dihydropyrimido[5,4-b]indolizin-8-yl]prop-2-enamide]
[11]
  CCT-020312 + Low EGFRi, fold decrease in cell viability (μ): 505.3 fold
[1]
  CCT-020312 + High EGFRi, fold decrease in cell viability (μ): 1235.6 fold
[12]
  DHBDC + Low EGFRi, fold decrease in cell viability (μ): 50.9 fold
[3]
  DHBDC + High EGFRi, fold decrease in cell viability (μ): 71.8 fold
[13]
  IPA + Low EGFRi, fold decrease in cell viability (μ): 72.3 fold
[5]
  IPA + High EGFRi, fold decrease in cell viability (μ): 89.5 fold
[14]
  MK-28 + Low EGFRI, fold decrease in cell viability (μ): 158.3 fold
[7]
  MK-28 + High EGFRi, fold decrease in cell viability (μ): 301.6 fold
[15]
  Low EGFRi, fold decrease in cell viability (μ): 10.5 fold
[9]
  High EGFRi, fold decrease in cell viability (μ): 13.6 fold
